As usually defined, the IC50 is the midpoint of a concentration-inhibition curve. A word on the AUC(0-inf): it is the area under the concentration-time curve extrapolated to infinity. Read a low AUC(0-inf) as less exposure. Broadly, the MRT is a mean duration of stay, worked out from the concentration-time curve. Usually AUC(0-t) stands for the area under the concentration-time curve up to a stated or last time point. The term Cmax denotes the maximum level reached in the sampled fluid or tissue. The term EC50 denotes the concentration needed to bring the measured effect to its halfway point.

Data set [1] deals with T1, human PSD95-PDZ2 (Homo sapiens, UniProt P78352).
T1 construct: PDZ2 (155-249, the Flag-His-Avitag-TEVsite tag is italicized); made in house; host or cells: E. coli BL21-DE3 (PET vector)
Description: competitive ELISA, affinity for human PSD95-PDZ2. The following applies: for IC50: competitive ELISA against 0.3 µM Biotin-NA-1, error of this test within three times, read-out: IC50. The data set is classed as binding. The source says:
The objective of this test example was to determine the affinities of polypeptide compounds for human PSD95-PDZ2 using competitive ELISAs.
The amino acid sequence of PDZ2 protein was designed using human PSD95 (Uniprot Entry: P78352) as a template for PDZ: PDZ2 (155-249, the Flag-His-Avitag-TEVsite tag is italicized and was subsequently used for purification and biotinylation): […]
[…] (SEQ ID NO. 62). The PDZ2 gene was constructed onto a PET expression vector, and induced expression was performed using BL21-DE3 E. coli cells under conditions of 37 °C and 1 mM IPTG 4 h. Then centrifugation was performed at 10,000 g at 4 °C for 10 min, and the cell pellets were collected, resuspended in 1× PBS solution, and then lysed using a homogenizer. The lysate was centrifuged at high speed, and the supernatant was collected and filtered through a 0.45 µm membrane. A Ni-Sepharose affinity column was equilibrated with 5 column volumes of a 20 mM phosphate buffer (pH 8.0). The sample was centrifuged at high speed to remove impurities and loaded onto the column for binding. The column was rinsed with the 20 mM phosphate buffer until the A280 reading dropped to the baseline. Gradient elution was then performed with the 20 mM phosphate buffer and 0-500 mM imidazole. A protein was collected, and whether it was the target protein was determined. The purified sample described above was buffer-exchanged into 1× PBS solution, and the resulting solution was concentrated to a volume of 2 mL and further purified using a Superdex200 gel chromatography column (GE) equilibrated with 1× PBS. The target peak was collected and aliquoted for later use.
PSD95-PDZ2 (the tag was removed by TEV enzyme) was diluted with 1× PBS buffer to 1 µg/mL, added to a 96-well microplate (Corning, 9018, 25/box 96-well clear flat bottom plate) at 100 µL/well, and left to stand overnight at 4 °C for 16-20 h. After the liquid was discarded, the plate was washed three times with PBST (pH 7.4, 0.05% Tween-20) buffer, and a 4% BSA blocking solution diluted with PBST buffer was then added (300 µL/well). The plate was blocked by incubation in an incubator at 37 °C for 1 h. After the blocking was complete, the blocking solution was discarded, and the plate was washed three times with PBST buffer. Biotin-NA-1, at a constant concentration of 0.3 µM, and the test compounds, having a starting concentration of 100 µM and serially diluted ten-fold with PBS buffer to seven concentrations (100, 10, 1, 0.1, 0.01, 0.001, 0.0001, and 0 µM), were then added, and the plate was incubated in an incubator at 37 °C for 1 h. After the incubation was complete, the reaction solutions in the microplate were discarded, and the plate was washed three times with PBST. 100 µL of HRP-SA secondary antibody (diluted at 1:2000) was added to each well, and the plate was incubated at 37 °C for 1 h. After the plate was washed three times with PBST, 100 µL of TMB chromogenic substrate was added. The plate was incubated at room temperature for 1-3 min, and 100 µL of 1 M sulfuric acid was added to stop the reaction.
The absorbance at 450 nm was measured using a SpectraMax M5 microplate reader, and non-linear fitting was performed using GraphPad Prism 9 to calculate the binding IC50 values of the test compounds to PSD95-PDZ2 protein.
Background: An ELISA detects its analyte on a solid surface through an enzyme-linked reagent.

Data set [2] can be described thus: pharmacokinetic study in rats, single intravenous bolus injection. The data set is classed as in vivo, SD rats. As to conditions: rats, intravenous bolus injection over 10 min, 3 nmol/g, n = 3. The method, then:
With male SD rats as test animals, the pharmacokinetic behavior of polypeptide compounds administered via single intravenous bolus injection in rats (plasma) was studied.
Male SD rats weighing 170 to 200 grams and aged 4-6 weeks were purchased from Beijing Vital River Laboratory Animal Technology Co., Ltd. The polypeptide compounds were dissolved in 1× PBS, and the polypeptide compound solutions were then administered via intravenous bolus injection over 10 min at a dose of 3 nmol/g, with three animals per group. At each of the time points of 2 min, 8 min, 15 min, 30 min, 45 min, 60 min, and 120 min after the end of bolus injection, 0.2 mL of blood was collected and transferred to an EDTA-K2 anticoagulation centrifuge tube. The whole blood sample was centrifuged at 4 °C at 4000 g for 5 min, and a plasma sample was obtained by separation and cryopreserved at -80 °C.
The pharmacokinetic parameters of polypeptide compound 22, administered via intravenous bolus injection, in rats were determined using a similar method, with the difference being that an enzyme inhibitor was added immediately after blood collection.
The plasma concentrations of the test compounds were determined using the method in Test Example 3.4.3. Plasma concentration-time curves were plotted, and the pharmacokinetic parameters were calculated using PKSolver software. The experimental results are shown in Table 5-1, Table 5-2, and FIG. 3.

In data set [3] the target is T1, human PSD95-PDZ2. Description: binding ELISA with Biotin-PDZ2. The following applies: for EC50: plate coated with 2 µM test compound, Biotin-PDZ2 titrated, read-out: EC50 (PDZ2). The source says: (§1) The three PDZ domains in the PSD95 protein are structurally similar. Binding to the PDZ1 and PDZ2 domains can effectively block PSD95-mediated neuroexcitotoxicity. However, the biological function of binding to the PDZ3 domain is unclear. Therefore, to avoid potential safety concerns, this test example assessed the selectivity of polypeptide compounds for the PDZ2 and PDZ3 domains, aiming to identify polypeptide compounds that specifically bind to the PDZ2 domain. Site-specifically biotinylated Biotin-PDZ2 and Biotin-PDZ3 proteins were used for binding ELISA assays. […] After the blocking was complete, the blocking solution was discarded, and the plate was washed three times with PBST buffer. […] After the incubation was complete, the reaction solutions in the microplate were discarded, and the plate was washed three times with PBST. 100 µL of HRP-SA secondary antibody (diluted at 1:2000) was added to each well, and the plate was incubated at 37 °C for 1 h. After the plate was washed three times with PBST, 100 µL of TMB chromogenic substrate was added. […] The absorbance at 450 nm was measured using a SpectraMax M5 microplate reader, and the binding EC50 values of the test compounds to Biotin-PDZ2 or Biotin-PDZ3 were calculated using GraphPad Prism 9. […] The abilities of polypeptide compounds to bind to human PSD95-PDZ2 and human PSD95-PDZ3
Target sequence in this assay (P78352 155-249): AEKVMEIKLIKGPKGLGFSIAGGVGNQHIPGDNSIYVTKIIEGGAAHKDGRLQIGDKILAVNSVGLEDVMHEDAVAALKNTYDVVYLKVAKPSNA

Another data set has as its target T2, human PSD95-PDZ3 (Homo sapiens, UniProt P78352).
T2 construct: PDZ3 (309-401, Flag-His-Avitag-TEVsite tag); made in house
Description: binding ELISA with Biotin-PDZ3. As to conditions: plate coated with 2 µM test compound, Biotin-PDZ3 titrated; read-out: EC50 (PDZ3).
Text: as §1, with “domain. The expression and purification of PSD95-PDZ3 protein were carried out with reference to the steps in 3.1.2. The amino acid sequence of PDZ3 protein: […]” for “domain.”, “μL” for “µL”

Like-named read-outs stand apart in the source and are kept apart here. Non-standard residues stand in square brackets, D forms with d. Residues, ends and D or L forms follow the SMILES beside them. Chg = N[C@H](C(=O)O)C1CCCCC1; Tle = CC(C)(C)[C@H](N)C(=O)O; Dab = NCC[C@H](N)C(=O)O; Aib = CC(C)(N)C(=O)O Where only a bound is given, the exact number is not on record here.

T2 sequence (P78352 309-401): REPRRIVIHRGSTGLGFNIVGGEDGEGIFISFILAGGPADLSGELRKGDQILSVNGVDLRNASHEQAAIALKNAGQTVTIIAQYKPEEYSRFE

`CC(C)[C@H](NC(=O)[C@H](CC(=O)O)NC(=O)[C@H](CO)NC(=O)[C@@H](NC(=O)[C@@H](NC(=O)[C@@H](NC(=O)[C@H](CCN)NC(=O)C(C)(C)NC(=O)CNC(=O)[C@@H](CCCNC(=N)N)NC(=O)[C@@H](CCCNC(=N)N)NC(=O)[C@@H](CCCNC(=N)N)NC(=O)[C@@H](CCC(N)=O)NC(=O)[C@@H](CCCNC(=N)N)NC(=O)[C@@H](CCCNC(=N)N)NC(=O)[C@@H](CCCCN)NC(=O)[C@@H](CCCCN)NC(=O)[C@@H](CCCNC(=N)N)NC(=O)CNC(=O)[C@H](N)Cc1ccc(O)cc1)[C@@H](C)O)C1CCCCC1)C(C)(C)C)C(=O)O` [Polypeptide compound 19, y-G-r-k-k-r-r-q-r-r-r-G-Aib-Dab-T-Chg-Tle-S-D-V] (H-[dY]G[dR][dK][dK][dR][dR][dQ][dR][dR][dR]G[Aib][Dab]T[Chg][Tle]SDV-OH): the IC50 on human PSD95-PDZ2 [1] was 0.612 µM. Moreover, in data set [2] (male, SD, rat, plasma), the AUC(0-inf) is 11800 ng·h/mL and the mean residence time MRT was found to be 57.6 min. For the same compound, in data set [2] (male, SD, rat, plasma, read-out: AUC(0-t)), the area under the curve AUC(0-t) was 10200 ng·h/mL. The Cmax in data set [2] (male, SD, rat, plasma, read-out: Cmax) was 19600 ng/mL. For the same compound, in data set [2] (male, SD, rat, plasma, read-out: T1/2 (converted)), the half-life is 43.8 min. The AUClast/dose in data set [2] was determined as 1345. Further, at human PSD95-PDZ2 [3], the EC50 amounted to 0.029 µM. Also, at human PSD95-PDZ3, the EC50 is > 1000 µM.

For `CC(C)[C@H](NC(=O)[C@H](CC(=O)O)NC(=O)[C@H](CO)NC(=O)[C@@H](NC(=O)[C@@H](NC(=O)[C@@H](NC(=O)CNC(=O)[C@@H](CCCNC(=N)N)NC(=O)[C@@H](CCCNC(=N)N)NC(=O)[C@@H](CCCNC(=N)N)NC(=O)[C@@H](CCC(N)=O)NC(=O)[C@@H](CCCNC(=N)N)NC(=O)[C@@H](CCCNC(=N)N)NC(=O)[C@@H](CCCCN)NC(=O)[C@@H](CCCCN)NC(=O)[C@@H](CCCNC(=N)N)NC(=O)CNC(=O)[C@H](N)Cc1ccc(O)cc1)[C@@H](C)O)C1CCCCC1)C(C)(C)C)C(=O)O` [Polypeptide compound 21, y-G-r-k-k-r-r-q-r-r-r-G-T-Chg-Tle-S-D-V] (H-[dY]G[dR][dK][dK][dR][dR][dQ][dR][dR][dR]GT[Chg][Tle]SDV-OH), at human PSD95-PDZ2 [1], the IC50 came to 0.8 µM. Moreover, the rIC50 at human PSD95-PDZ2 [1] (ratio of the affinity of the polypeptide compound to the affinity of NA-1) is recorded as 0.88. Further, in data set [2], the “AUC(0-t)” value came out at 5660 ng·h/mL, the “AUC(inf)” value was 6396 ng·h/mL, the AUClast/dose was 745 and the peak concentration (Cmax) was found to be 15643 ng/mL. In data set [2], this compound gave an MRTO-inf of 48 min and a T1/2 of 43.2 min. In addition, the “selectivity for the PSD95-PDZ2 domain” value on human PSD95-PDZ2 [3] (PDZ2 versus PDZ3, conclusion in words) is “comparable to that of the positive drugs NA-1 and NoNO42”. Further, on human PSD95-PDZ2 [3], the EC50 worked out at 0.018 µM. Also, the “Specificity for PDZ2 (PDZ3/PDZ2)” value on human PSD95-PDZ2 [3] (ratio PDZ3/PDZ2) is listed as >10000. For the same compound, the EC50 on human PSD95-PDZ3 is > 1000 µM.

For the origin of these results see patent EP4650362A1, “NEUROPROTECTIVE PSD-95 POLYPEPTIDE INHIBITOR AND USE THEREOF” (Beijing Tuo Jie Biopharmaceutical Co. Ltd., priority 2023, dated 2024).
